Read-outs that look alike come from different tables or passages of the source.
How the values were obtained:
[1] = system: phosphorylation of ERK (Thr202/Tyr204); assay: ERK phosphorylation inhibitory activity, cell ELISA, PA-TU-8902; type: cell-based; conditions: Homo sapiens, read-out: IC50 (ERK phosphorylation inhibition)
Procedure: Test Example 2: Evaluation of ERK Phosphorylation Inhibitory Activity on Human KRAS G12V Mutant-Positive Pancreatic Cancer Line PA-TU-8902
The ERK phosphorylation inhibitory activities of subject compounds were evaluated by measuring phosphorylation of the 202th threonine (Thr202) and the 204th tyrosine (Tyr204) of ERK located downstream of the KRAS signal by cell ELISA.
PA-TU-8902 cells were seeded at 36 µL/well on a 384-well plate (from Greiner bio-one) to give 5.0×10^3 cells per well. The cell culture conditions were the same conditions as in Test Example 1-1.
The next day, the subject compounds (9 points having final concentrations in the range of 3 μM to 0.3 nM), trametinib (MEK inhibitor) of a final concentration of 300 nM as a positive control and DMSO, which was the solvent for the subject compounds, as a negative control were diluted 100-fold with a fresh medium and were each added at 4 μL per well, followed by culturing for 24 hours. After culturing, a 30% glyoxal solution (40% glyoxal [from Nacalai Tesque] was diluted with PBS) was quickly added at 30 μL per well, and the plate was allowed to stand for an hour and 30 minutes at room temperature to thus immobilize the cells. Then, the plate was centrifuged (110×g, seven seconds, hereinafter centrifugation was performed under the same conditions unless otherwise specified) to remove the supernatant, and 0.1% Triton X-100-containing PBS was added at 20 μL per well. After allowing the plate to stand for 10 minutes at room temperature, the supernatant was removed by centrifugation, and the same operation was further repeated. Next, 0.5% SDS-containing PBS was added at 20 μL per well. The plate was allowed to stand at room temperature for 30 minutes and was then centrifuged to remove the supernatant. Subsequently, a blocking solution (Intercept Blocking Buffer) was added at 20 μL per well, and the plate was allowed to stand for an hour at room temperature. The supernatant was removed by centrifugation, and an ERK (Thr202/Tyr204) phosphorylation antibody (Phospho-p44/42 MAPK (Erk 1/2) (Thr202/Tyr204) (D13.14.4E) XP Rabbit mAb; from Cell Signaling Technology) diluted 2,500-fold with the blocking solution was added at 15 μL per well as a primary antibody. The plate was allowed to stand at 4° C. overnight.
The next day, the plate was centrifuged to remove the supernatant, and 0.05% Tween-20-containing PBS (from Thermo Scientific; 20×PBS Tween-20 was diluted 20-fold with ion exchange water and used) was added at 50 μL per well. The supernatant was removed by centrifugation to thus wash each well. The washing was performed three times in total. After washing, an anti-rabbit IgG antibody diluted 1,000-fold with the blocking solution was added at 15 μL per well as a secondary antibody, and the plate was allowed to stand for an hour at room temperature. The plate was centrifuged to remove the supernatant, and each well was washed three times with 0.05% Tween-20-containing PBS in the same manner as after the primary antibody reaction. Centrifugation after the third washing was performed at 171×g for 17 seconds. After removing the supernatant, the plate was dried as it was with air at room temperature for three hours or more, and the 800-nm fluorescent signals were measured with Aerius.
With the signaling value at the time of addition of DMSO taken as 0% inhibition and with the signaling value at the time of addition of 300 nM trametinib taken as 100% inhibition, the 50% inhibition values (IC50) were calculated by Sigmoid-Emax model nonlinear regression analysis.

[2] = system: PA-TU-8902 cells; assay: Non-anchorage-dependent cell growth inhibition (spheroid 3D culture), PA-TU-8902; type: cell-based, human; conditions: Homo sapiens, PaTu 8902, 144 h, read-out: PA-TU-8902 IC50
Procedure: Test Example 3: Evaluation of Non-Anchorage-Dependent Cell Growth Inhibitory Activity on Human KRAS G12V Mutant-Positive Pancreatic Cancer Line PA-TU-8902, Human KRAS G12D Mutant-Positive Pancreatic Cancer Line AsPC-1 or Human KRAS G12C Mutant-Positive Pancreatic Cancer Line MIA PaCa-2
The non-anchorage-dependent cell growth inhibitory activities of subject compounds were evaluated by spheroid 3D cell culture.
PA-TU-8902 cells, AsPC-1 cells or MIA PaCa-2 cells (RIKEN BRC, RCB2094) were seeded at 36 µL/well on a low-cell-adhesive round bottom 384-well plate (Prime Surface: from Sumitomo Bakelite) to give 5×10^2 cells per well. The PA-TU-8902 cells were under the same conditions as in Test Example 1-1, and the AsPC-1 cells were under the same conditions as in Test Example 1-2. For the MIA PaCa-2 cells, RPMI-1640 medium containing 10% fetal bovine serum was used in the presence of 5% CO2 at 37° C.
The next day, the subject compounds (6-9 points having final concentrations in the range of 3 μM to 0.3 nM) and DMSO, which was the solvent for the subject compounds, as a negative control were diluted 100-fold with a fresh medium and were each added at 4 μL per well. After culturing in the presence of 5% CO2 at 37° C. for six days, CellTiter-Glo 2.0 (from Promega) was added at 20 μL per well. After stirring with a plate mixer (from FINEPCR) at normal temperature for an hour, the luminescent signals were measured with ARVO X3 (from PerkinElmer).
With the signaling value in treatment with DMSO taken as 0% inhibition and with the signaling value in the medium alone without cells taken as 100% inhibition, the 50% inhibition values (IC50) were calculated by Sigmoid-Emax model nonlinear regression analysis.

[3] = PaTu 8902, PA-TU-8902 cells, 24 hours, 100% = 300 nM trametinib
[4] = KRAS G12V mutant-positive, 3D spheroid, six days, CellTiter-Glo 2.0

Row | Compound | IC50 [1, 3] | IC50 [2, 4] | IC50 ([1]; PaTu 8902, 24 h) | IC50 [2]
1 | CO[C@@H](C)COc1nc(NC2CN(C(=S)N3CC(CN(C)C)C3)C2)c2cc(C3CC3)c(-c3c(C)c(F)cc4[nH]ncc34)c(OCc3ccc(-c4cn([C@H](C(=O)N5C[C@H](O)C[C@H]5C(=O)N[C@@H](CO)c5ccc(-n6cncn6)cc5)C(C)C)nn4)cc3)c2n1 (atropisomer, axis not shown) [Example 26] | 15 nM | 41 nM |  | 
2 | CO[C@@H](C)COc1cc(OC2CN(C(=O)C3CN(C)C3)C2)c2cc(C3CC3)c(-c3c(C)c(F)cc4[nH]ncc34)c(OCc3ccc(-c4cn([C@H](C(=O)N5C[C@H](O)C[C@H]5C(=O)N[C@@H](CO)c5ccc(-n6cncn6)cc5)C(C)C)nn4)cc3)c2n1 (atropisomer, axis not shown) [Example 42] |  |  | 14 nM | 32 nM
3 | CO[C@@H](C)COc1cc(OC2CN(C(=O)CCCN(C)C)C2)c2cc(C3CC3)c(-c3c(C)c(F)cc4[nH]ncc34)c(OCc3ccc(-c4cn([C@H](C(=O)N5C[C@H](O)C[C@H]5C(=O)N[C@@H](CO)c5ccc(-n6cncn6)cc5)C(C)C)nn4)cc3)c2n1 (atropisomer, axis not shown; (M)) [Example 41, (4R)-1-[(2S)-2-(4-{4-[({(7M)-6-cyclopropyl-4-({1-[4-(dimethylamino)butanoyl]azetidin-3-yl}oxy)-7-(6-fluoro-5-methyl-1H-indazol-4-yl)-2-[(2S)-2-methoxypropoxy]quinolin-8-yl}oxy)methyl]phenyl}-1H-1,2,3-triazol-1-yl)-3-methylbutanoyl]-4-hydroxy-N-{(1R)-2-hydroxy-1-[4-(1H-1,2,4-triazol-1-yl)phenyl]ethyl}-L-prolinamide] | 24 nM | 52 nM |  | 
4 | CO[C@@H](C)COc1nc(NC2CN(C(=O)O[C@H]3C[C@@H](N(C)C)C3)C2)c2cc(C3CC3)c(-c3c(C)c(F)cc4[nH]ncc34)c(OCc3ccc(-c4cn([C@H](C(=O)N5C[C@H](O)C[C@H]5C(=O)N[C@@H](CO)c5ccc(-n6cncn6)cc5)C(C)C)nn4)cc3)c2n1 (atropisomer, axis not shown; (M)) [Example 2, (1s,3R)-3-(dimethylamino)cyclobutyl 3-({(7M)-6-cyclopropyl-7-(6-fluoro-5-methyl-1H-indazol-4-yl)-8-{[4-(1-{(2S)-1-[(2S,4R)-4-hydroxy-2({(1R)-2-hydroxy-1-[4-(1H-1,2,4-triazol-1-yl)phenyl]ethyl}carbamoyl)pyrrolidin-1-yl]-3-methyl-1-oxobutan-2-yl}-1H-1,2,3-triazol-4-yl)phenyl]methoxy}-2-[(2S)-2-methoxypropoxy]quinazolin-4-yl}amino)azetidine-1-carboxylate] | 16 nM | 33 nM |  | 
5 | Cc1ncsc1-c1ccc([C@H](CO)NC(=O)[C@@H]2C[C@@H](O)CN2C(=O)[C@H](C(C)C)n2cc(-c3ccc(COc4c(-c5c(C)c(F)cc6[nH]ncc56)c(C5CC5)cc5c(NC6CN(c7ncccn7)C6)nc(OC6CCOCC6)nc45)cc3)nn2)cc1 [Example 15, (4R)-1-[(2S)-2-{4-[4-({[(7M)-6-cyclopropyl-7-(6-fluoro-5-methyl-1H-indazol-4-yl)-2-[(oxan-4-yl)oxy]-4-{[1-(pyrimidin-2-yl)azetidin-3-yl]amino}quinazolin-8-yl]oxy}methyl)phenyl]-1H-1,2,3-triazol-1-yl}-3-methylbutanoyl]-4-hydroxy-N-{(1R)-2-hydroxy-1-[4-(4-methyl-1,3-thiazol-5-yl)phenyl]ethyl}-L-prolinamide] | 42 nM | 161 nM |  | 

Further lines, with some results ahead:

Row | IC50 [1, 3] | Compound | IC50 [2, 4] | IC50 ([1]; PaTu 8902, 24 h) | IC50 [2]
6 | 13 nM | CO[C@@H](C)COc1nc(NC2CN(C(=O)N3CC(CN(C)C)C3)C2)c2cc(C3CC3)c(-c3c(C)c(F)cc4[nH]ncc34)c(OCc3ccc(-c4cn([C@H](C(=O)N5C[C@H](O)C[C@H]5C(=O)N[C@@H](CO)c5ccc(-c6scnc6C)cc5)C(C)C)nn4)cc3)c2n1 (atropisomer, axis not shown) [Example 25] | 41 nM |  | 
7 | 19 nM | CO[C@@H](C)COc1nc(NC2CN(C(=O)O[C@H]3C[C@@H](N(C)C)C3)C2)c2cc(C3CC3)c(-c3c(C)c(F)cc4[nH]ncc34)c(OCc3ccc(-c4cn([C@H](C(=O)N5C[C@H](O)C[C@H]5C(=O)N[C@@H](CO)c5ccc(-c6ocnc6C)cc5)C(C)C)nn4)cc3)c2n1 (atropisomer, axis not shown; (M)) [Example 1, (1s,3R)-3-(dimethylamino)cyclobutyl 3-({(7M)-6-cyclopropyl-7-(6-fluoro-5-methyl-1H-indazol-4-yl)-8-{[4-(1-{(2S)-1-[(2S,4R)-4-hydroxy-2-({(1R)-2-hydroxy-1-[4-(4-methyl-1,3-oxazol-5-yl)phenyl]ethyl}carbamoyl)pyrrolidin-1-yl]-3-methyl-1-oxobutan-2-yl}-1H-1,2,3-triazol-4-yl)phenyl]methoxy}-2-[(2S)-2-methoxypropoxy]quinazolin-4-yl}amino)azetidine-1-carboxylate] | 57 nM |  | 
8 | 23 nM | CO[C@@H](C)COc1nc(OC2CN(C(=O)NCCN(C)C)C2)c2cc(C3CC3)c(-c3c(C)c(F)cc4[nH]ncc34)c(OCc3ccc(-c4cn([C@H](C(=O)N5C[C@H](O)C[C@H]5C(=O)N[C@@H](CO)c5ccc(-c6scnc6C)cc5)C(C)C)nn4)cc3)c2n1 (atropisomer, axis not shown) [Example 17] | 46 nM |  | 
9 | 107 nM | CO[C@@H](C)COc1nc(N[C@H]2C[C@H](OCCN(C)C)C2)c2cc(C3CC3)c(-c3c(C)c(F)cc4[nH]ncc34)c(OCc3ccc(-c4cn([C@H](C(=O)N5C[C@H](O)C[C@H]5C(=O)N[C@@H](CO)c5ccc(-c6scnc6C)cc5)C(C)C)nn4)cc3)c2n1 (atropisomer, axis not shown) [Example 23] | 182 nM |  | 
10 | 34 nM | CO[C@@H](C)COc1nc(N2CC(C#N)C2)c2cc(C3CC3)c(-c3c(C)c(F)cc4[nH]ncc34)c(OCc3ccc(-c4cn([C@H](C(=O)N5C[C@H](O)C[C@H]5C(=O)N[C@@H](CO)c5ccc(-c6scnc6C)cc5)C(C)C)nn4)cc3)c2n1 (atropisomer, axis not shown) [Example 20] | 63 nM |  | 
